Experimental data taken from publication PMC10326263 (Acta Pharmaceutica Sinica. B, 2023).

Key:
[1] = system: HIV-1 mutant strain L100I; experiment: microbe, parasite or virus in culture; assay type: cell-based; settings: Human immunodeficiency virus 1, MT4, read-out: EC50 L100I
[2] = system: HIV-1 mutant strain RES056 (K103N + Y181C); experiment: microbe, parasite or virus in culture; assay type: cell-based; settings: Human immunodeficiency virus 1, MT4, read-out: EC50 RES056
[3] = system: HIV-1 mutant strain Y188L; experiment: microbe, parasite or virus in culture; assay type: cell-based; settings: Human immunodeficiency virus 1, MT4, read-out: EC50 Y188L
[4] = system: HIV-1 mutant strain F227L + V106A; experiment: microbe, parasite or virus in culture; assay type: cell-based; settings: Human immunodeficiency virus 1, MT4, read-out: EC50 F227L + V106A
[5] = system: HIV-1 mutant strain E138K; experiment: microbe, parasite or virus in culture; assay type: cell-based; settings: Human immunodeficiency virus 1, MT4, read-out: EC50 E138K
[6] = system: HIV-1 mutant strain Y181C; experiment: microbe, parasite or virus in culture; assay type: cell-based; settings: Human immunodeficiency virus 1, MT4, read-out: EC50 Y181C
[7] = Cytotoxicity in mock-infected MT-4 cells, MTT method; assay type: cell-based; settings: human, mock-infected MT-4 cells, CC50, mock-infected MT-4 cells
[8] = system: HIV-1 mutant strain K103N; experiment: microbe, parasite or virus in culture; assay type: cell-based; settings: Human immunodeficiency virus 1, MT4, read-out: EC50 K103N
HIV-1 WT strain (IIIB) = experiment: Anti-HIV activity against WT HIV-1; settings: WT HIV-1 IIIB

Row | Compound | EC50 [1] | EC50 [2] | EC50 [3] | EC50 [4] | EC50 [5] | EC50 [6] | CC50 at 5 days [7] | EC50 [8] | SI IIIB (CC50/EC50 ratio) (HIV-1 WT strain (IIIB))
1 | O=C1Nc2ccc(Cl)cc2[C@@](C#CC2CC2)(C(F)(F)F)O1 [EFV, Efavirenz, reference compound] | 0.032 ± 0.006 µM | 0.48 ± 0.19 µM | 0.27 ± 0.016 µM | 0.27 ± 0.048 µM | 0.007 ± 0.001 µM | 0.007 ± 0.002 µM | > 6.34 µM | 0.1 ± 0.019 µM | 
2 | Cc1cc(C#N)cc(C)c1Oc1nc(Nc2ccc(C#N)cc2)nc(N)c1Br [ETR, Etravirine, reference compound] | 0.032 ± 0.028 µM | 0.15 ± 0.12 µM | 0.083 ± 0.053 µM | 0.088 ± 0.076 µM | 0.037 ± 0.03 µM | 0.058 ± 0.041 µM | > 4.59 µM | 0.015 ± 0.012 µM | >900
3 | Cc1ccnc2c1NC(=O)c1cccnc1N2C1CC1 [NVP, Nevirapine, reference compound] | 1.26 ± 0.6 µM | > 9.52 µM | > 9.52 µM | > 9.52 µM | 0.095 ± 0.031 µM | > 9.52 µM | > 15 µM | 5.33 ± 1.07 µM | >114
4 | Cc1ccc(S(=O)(=O)NCCNC(=O)c2[nH]c3ccc(Cl)cc3c2S(=O)(=O)c2cc(C)cc(C)c2)cc1 [R1L2, 5-Chloro-3-((3,5-dimethylphenyl)sulfonyl)-N-(2-((4-methylphenyl)sulfonamido)ethyl)-1H-indole-2-carboxamide] | 0.68 ± 0.39 µM | 3.38 ± 0.89 µM | 6.42 ± 1.4 µM | 1.75 ± 0.2 µM | 0.86 ± 0.36 µM | 0.61 ± 0.13 µM | 168 ± 17.2 µM | 0.41 ± 0.11 µM | 3787
5 | Cc1ccc(S(=O)(=O)NCCCNC(=O)c2[nH]c3ccc(Cl)cc3c2S(=O)(=O)c2cc(C)cc(C)c2)cc1 [R1L3, 5-Chloro-3-((3,5-dimethylphenyl)sulfonyl)-N-(3-((4-methylphenyl)sulfonamido)propyl)-1H-indole-2-carboxamide] | 0.54 ± 0.42 µM | 5.97 ± 0.65 µM | 7.14 ± 1.4 µM | 1.26 ± 0.38 µM | 0.21 ± 0.14 µM | 1.19 ± 0.3 µM | 168 ± 23.5 µM | 0.73 ± 0.14 µM | 4586
6 | Cc1ccc(S(=O)(=O)NCCCCNC(=O)c2[nH]c3ccc(Cl)cc3c2S(=O)(=O)c2cc(C)cc(C)c2)cc1 [R1L4, 5-Chloro-3-((3,5-dimethylphenyl)sulfonyl)-N-(4-((4-methylphenyl)sulfonamido)butyl)-1H-indole-2-carboxamide] | 0.16 ± 0.085 µM | > 103 µM | 1.52 ± 0.27 µM | 0.31 ± 0.034 µM | 0.13 ± 0.085 µM | 0.31 ± 0.068 µM | 103 ± 59.8 µM | 0.31 ± 0.068 µM | 3232
7 | Cc1ccc(S(=O)(=O)NCCCCCNC(=O)c2[nH]c3ccc(Cl)cc3c2S(=O)(=O)c2cc(C)cc(C)c2)cc1 [R1L5, 5-Chloro-3-((3,5-dimethylphenyl)sulfonyl)-N-(5-((4-methylphenyl)sulfonamido)pentyl)-1H-indole-2-carboxamide] | 0.17 ± 0.017 µM | > 113 µM | 2.53 ± 0.18 µM | 0.38 ± 0.13 µM | 0.18 ± 0.017 µM | 0.23 ± 0.017 µM | 113 ± 3.74 µM | 0.63 ± 0.017 µM | 4159
8 | COc1ccc(S(=O)(=O)NCCNC(=O)c2[nH]c3ccc(Cl)cc3c2S(=O)(=O)c2cc(C)cc(C)c2)cc1 [R2L2, 5-Chloro-3-((3,5-dimethylphenyl)sulfonyl)-N-(2-((4-methoxyphenyl)sulfonamido)ethyl)-1H-indole-2-carboxamide] | 0.66 ± 0.23 µM | > 106 µM | > 106 µM | 1.58 ± 0.45 µM | 1.11 ± 0.17 µM | 0.85 ± 0.035 µM | 106 ± 23 µM | 0.9 ± 0.38 µM | 1233
9 | COc1ccc(S(=O)(=O)NCCCNC(=O)c2[nH]c3ccc(Cl)cc3c2S(=O)(=O)c2cc(C)cc(C)c2)cc1 [R2L3, 5-Chloro-3-((3,5-dimethylphenyl)sulfonyl)-N-(3-((4-methoxyphenyl)sulfonamido)propyl)-1H-indole-2-carboxamide] | 0.32 µM | > 163 µM | 5.98 ± 0.31 µM | 0.97 ± 0.051 µM | 0.25 µM | 0.83 ± 0.068 µM | 163 ± 15.3 µM | 0.66 ± 0.085 µM | 4354
10 | COc1ccc(S(=O)(=O)NCCCCNC(=O)c2[nH]c3ccc(Cl)cc3c2S(=O)(=O)c2cc(C)cc(C)c2)cc1 [R2L4, 5-Chloro-3-((3,5-dimethylphenyl)sulfonyl)-N-(4-((4-methoxyphenyl)sulfonamido)butyl)-1H-indole-2-carboxamide] | 0.18 µM | > 22.5 µM | 0.8 ± 0.083 µM | 0.28 ± 0.033 µM | 0.25 ± 0.05 µM | 0.33 µM | 22.5 ± 9.14 µM | 0.33 ± 0.033 µM | 615
11 | COc1ccc(S(=O)(=O)NCCCCCNC(=O)c2[nH]c3ccc(Cl)cc3c2S(=O)(=O)c2cc(C)cc(C)c2)cc1 [R2L5, 5-Chloro-3-((3,5-dimethylphenyl)sulfonyl)-N-(5-((4-methoxyphenyl)sulfonamido)pentyl)-1H-indole-2-carboxamide] | 0.094 ± 0.047 µM | > 110 µM | 1.28 ± 0.44 µM | 0.28 ± 0.065 µM | 0.13 ± 0.049 µM | 0.19 ± 0.016 µM | 110 ± 7.89 µM | 0.57 µM | 4772
12 | Cc1cc(C)cc(S(=O)(=O)c2c(C(=O)NCCNS(=O)(=O)c3ccc([N+](=O)[O-])cc3)[nH]c3ccc(Cl)cc23)c1 [R3L2, 5-Chloro-3-((3,5-dimethylphenyl)sulfonyl)-N-(2-((4-nitrophenyl)sulfonamido)ethyl)-1H-indole-2-carboxamide] | 0.95 ± 0.085 µM | > 212 µM | > 212 µM | 6.17 ± 1.14 µM | 1.15 µM | 1 ± 0.17 µM | > 212 µM | 0.59 ± 0.1 µM | >1764
13 | Cc1cc(C)cc(S(=O)(=O)c2c(C(=O)NCCCNS(=O)(=O)c3ccc([N+](=O)[O-])cc3)[nH]c3ccc(Cl)cc23)c1 [R3L3, 5-Chloro-3-((3,5-dimethylphenyl)sulfonyl)-N-(3-((4-nitrophenyl)sulfonamido)propyl)-1H-indole-2-carboxamide] | 0.35 ± 0.017 µM | 4.92 ± 1.27 µM | 3.29 ± 0.066 µM | 1.77 ± 0.033 µM | 0.31 ± 0.05 µM | 1.03 ± 0.05 µM | 23 ± 0.6 µM | 0.73 ± 0.12 µM | 464
14 | Cc1cc(C)cc(S(=O)(=O)c2c(C(=O)NCCCCNS(=O)(=O)c3ccc([N+](=O)[O-])cc3)[nH]c3ccc(Cl)cc23)c1 [R3L4, 5-Chloro-3-((3,5-dimethylphenyl)sulfonyl)-N-(4-((4-nitrophenyl)sulfonamido)butyl)-1H-indole-2-carboxamide] | 0.13 ± 0.018 µM | 1.88 ± 0.68 µM | 0.87 ± 0.065 µM | 0.36 ± 0.032 µM | 0.23 ± 0.032 µM | 0.4 ± 0.11 µM | 104 ± 31.4 µM | 0.5 ± 0.16 µM | 3809
15 | Cc1cc(C)cc(S(=O)(=O)c2c(C(=O)NCCCCCNS(=O)(=O)c3ccc([N+](=O)[O-])cc3)[nH]c3ccc(Cl)cc23)c1 [R3L5, 5-Chloro-3-((3,5-dimethylphenyl)sulfonyl)-N-(5-((4-nitrophenyl)sulfonamido)pentyl)-1H-indole-2-carboxamide] | 0.13 ± 0.0063 µM | 25.14 ± 0.047 µM | 2.47 ± 0.16 µM | 0.54 ± 0.14 µM | 0.25 ± 0.032 µM | 0.3 µM | > 198 µM | 0.9 ± 0.079 µM | >7548
16 | Cc1cc(C)cc(S(=O)(=O)c2c(C(=O)NCCNS(=O)(=O)c3ccc(F)cc3)[nH]c3ccc(Cl)cc23)c1 [R4L2, 5-Chloro-3-((3,5-dimethylphenyl)sulfonyl)-N-(2-((4-fluorophenyl)sulfonamido)ethyl)-1H-indole-2-carboxamide] | 0.21 ± 0.036 µM | 3.23 ± 0.018 µM | 3 ± 0.053 µM | 0.83 ± 0.12 µM | 0.37 ± 0.11 µM | 0.37 ± 0.14 µM | > 222 µM | 0.36 ± 0.16 µM | >7921
17 | Cc1cc(C)cc(S(=O)(=O)c2c(C(=O)NCCCNS(=O)(=O)c3ccc(F)cc3)[nH]c3ccc(Cl)cc23)c1 [R4L3, 5-Chloro-3-((3,5-dimethylphenyl)sulfonyl)-N-(3-((4-fluorophenyl)sulfonamido)propyl)-1H-indole-2-carboxamide] | 0.24 ± 0.035 µM | 3.55 ± 0.35 µM | 2.84 ± 0.052 µM | 1.04 ± 0.035 µM | 0.26 ± 0.017 µM | 0.69 ± 0.017 µM | 35 ± 6.97 µM | 0.45 ± 0.1 µM | 901
18 | Cc1cc(C)cc(S(=O)(=O)c2c(C(=O)NCCCCNS(=O)(=O)c3ccc(F)cc3)[nH]c3ccc(Cl)cc23)c1 [R4L4, 5-Chloro-3-((3,5-dimethylphenyl)sulfonyl)-N-(4-((4-fluorophenyl)sulfonamido)butyl)-1H-indole-2-carboxamide] | 0.056 ± 0.036 µM | > 211 µM | 1.27 ± 0.2 µM | 0.29 ± 0.12 µM | 0.063 ± 0.003 µM | 0.2 ± 0.034 µM | > 211 µM | 0.19 ± 0.051 µM | >10,593
